Assay results published in patent US7135466B2 (Kirin Beer Kabushiki Kaisha, priority 1999, dated 2006).

The compounds below were run against T1, c-kit (Homo sapiens, UniProt P10721) (assay: Inhibitory activity against c-kit autophosphorylation (MO7e cells, h-SCF)). Conditions: MO7e cells, h-SCF stimulation; read-out: c-kit IC50.
T1 construct: MO7e (human megakaryocytic leukemia cell line) which had been arrested for 20 hr; endogenous in cells; host or cells: MO7e human megakaryocytic leukemia cell line
Assay type: cell-based
In short: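 MO7e human megakaryocytic leukemia cells, arrested 20 hr, treated with compound 1 hr, then stimulated with 50 ng/ml h-SCF for 5 min and lysed. Lysates captured on immobilized anti-phosphotyrosine antibody, detected with anti-c-kit primary and HRP secondary antibody; absorbance at 450 nm.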

T1 sequence (P10721 26-976): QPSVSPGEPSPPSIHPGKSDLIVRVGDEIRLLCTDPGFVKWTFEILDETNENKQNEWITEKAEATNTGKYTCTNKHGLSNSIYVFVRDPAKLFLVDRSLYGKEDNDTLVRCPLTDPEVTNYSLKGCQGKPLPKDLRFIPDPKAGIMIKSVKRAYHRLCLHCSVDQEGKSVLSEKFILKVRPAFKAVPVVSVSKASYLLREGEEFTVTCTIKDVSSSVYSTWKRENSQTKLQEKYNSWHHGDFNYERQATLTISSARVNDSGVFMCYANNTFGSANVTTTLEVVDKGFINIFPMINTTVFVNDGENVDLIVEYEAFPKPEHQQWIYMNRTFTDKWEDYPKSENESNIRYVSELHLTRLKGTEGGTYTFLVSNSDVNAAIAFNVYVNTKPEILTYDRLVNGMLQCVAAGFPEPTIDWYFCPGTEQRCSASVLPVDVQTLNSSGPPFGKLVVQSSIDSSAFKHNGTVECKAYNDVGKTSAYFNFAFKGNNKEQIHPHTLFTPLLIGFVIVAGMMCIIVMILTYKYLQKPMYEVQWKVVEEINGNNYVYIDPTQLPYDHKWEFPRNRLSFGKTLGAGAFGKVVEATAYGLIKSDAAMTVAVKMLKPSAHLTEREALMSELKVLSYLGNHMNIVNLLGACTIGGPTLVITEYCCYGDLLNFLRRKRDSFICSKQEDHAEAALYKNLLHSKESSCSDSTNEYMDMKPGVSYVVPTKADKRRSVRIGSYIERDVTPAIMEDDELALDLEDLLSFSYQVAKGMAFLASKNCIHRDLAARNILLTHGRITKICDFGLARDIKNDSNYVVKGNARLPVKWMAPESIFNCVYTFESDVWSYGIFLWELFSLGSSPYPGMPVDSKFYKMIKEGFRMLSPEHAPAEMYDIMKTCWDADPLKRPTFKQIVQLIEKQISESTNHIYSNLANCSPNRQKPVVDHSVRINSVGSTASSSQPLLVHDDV

IC50	Structure (SMILES)
516 nM	COc1cc2nccc(Oc3ccc(NC(=S)NC(=O)c4cccc(F)c4)cc3)c2cc1OC [Example 931, N-{4-[(6,7-Dimethoxy-4-quinolyl)oxy]phenyl}-N′-(3-fluorobenzoyl)thiourea]
208 nM	COc1cc2nccc(Oc3ccc(NC(=S)NC(=O)c4cccc(Cl)c4)cc3)c2cc1OC [Example 932, N-(3-Chlorobenzoyl)-N′-{4-[(6,7-dimethoxy-4-quinolyl)oxy]phenyl}thiourea]
493 nM	COc1cccc(C(=O)NC(=S)Nc2ccc(Oc3ccnc4cc(OC)c(OC)cc34)cc2)c1 [Example 933, N-{4-[(6,7-Dimethoxy-4-quinolyl)oxy]phenyl}-N′-(3-methoxybenzoyl)thiourea]
143 nM	COc1cc2nccc(Oc3ccc(NC(=S)NC(=O)c4cccc(C(F)(F)F)c4)cc3)c2cc1OC [Example 934, N-{4-[(6,7-Dimethoxy-4-quinolyl)oxy]phenyl}-N′-[3-(trifluoromethyl)benzoyl]thiourea]
166 nM	COc1cc2nccc(Oc3ccc(NC(=S)NC(=O)c4cccc(Br)c4)cc3)c2cc1OC [Example 935, N-(3-Bromobenzoyl)-N′-{4-[(6,7-dimethoxy-4-quinolyl)oxy]phenyl}thiourea]
427 nM	COc1cc2nccc(Oc3ccc(NC(=S)NC(=O)c4cccc(C)c4)c(F)c3)c2cc1OC [Example 936, N-{4-[(6,7-Dimethoxy-4-quinolyl)oxy]-2-fluorophenyl}-N′-(3-methylbenzoyl)thiourea]
819 nM	COc1cc2nccc(Oc3ccc(NC(=S)NC(=O)c4cccc(F)c4)c(F)c3)c2cc1OC [Example 937, N-{4-[(6,7-Dimethoxy-4-quinolyl)oxy]-2-fluorophenyl}-N′-(3-fluorobenzoyl)thiourea]
532 nM	COc1cc2nccc(Oc3ccc(NC(=S)NC(=O)c4cccc(Cl)c4)c(F)c3)c2cc1OC [Example 938, N-(3-Chlorobenzoyl)-N′-{4-[(6,7-dimethoxy-4-quinolyl)oxy]-2-fluorophenyl}thiourea]
220 nM	COc1cccc(C(=O)NC(=S)Nc2ccc(Oc3ccnc4cc(OC)c(OC)cc34)cc2F)c1 [Example 939, N-{4-[(6,7-Dimethoxy-4-quinolyl)oxy]-2-fluorophenyl}-N′-(3-methoxybenzoyl)thiourea]
292 nM	COc1cc2nccc(Oc3ccc(NC(=S)NC(=O)c4cccc(Br)c4)c(F)c3)c2cc1OC [Example 940, N-(3-Bromobenzoyl)-N′-{4-[(6,7-dimethoxy-4-quinolyl)oxy]-2-fluorophenyl}thiourea]
145 nM	COc1cc2nccc(Oc3ccc(NC(=S)NC(=O)c4cccc(C)c4)cc3F)c2cc1OC [Example 941, N-{4-[(6,7-Dimethoxy-4-quinolyl)oxy]-3-fluorophenyl}-N′-(3-methylbenzoyl)thiourea]
335 nM	COc1cc2nccc(Oc3ccc(NC(=S)NC(=O)c4cccc(F)c4)cc3F)c2cc1OC [Example 942, N-{4-[(6,7-Dimethoxy-4-quinolyl)oxy]-3-fluorophenyl}-N′-(3-fluorobenzoyl)thiourea]
136 nM	COc1cc2nccc(Oc3ccc(NC(=S)NC(=O)c4cccc(Cl)c4)cc3F)c2cc1OC [Example 943, N-(3-Chlorobenzoyl)-N′-{4-[(6,7-dimethoxy-4-quinolyl)oxy]-3-fluorophenyl}thiourea]
140 nM	COc1cccc(C(=O)NC(=S)Nc2ccc(Oc3ccnc4cc(OC)c(OC)cc34)c(F)c2)c1 [Example 944, N-{4-[(6,7-Dimethoxy-4-quinolyl)oxy]3-fluorophenyl}-N′-(3-methoxybenzoyl)thiourea]
131 nM	COc1cc2nccc(Oc3ccc(NC(=S)NC(=O)c4cccc(C(F)(F)F)c4)cc3F)c2cc1OC [Example 945, N-{4-[(6,7-Dimethoxy-4-quinolyl)oxy]-3-fluorophenyl}-N′-[3-(trifluoromethyl)benzoyl]thiourea]
142 nM	COc1cc2nccc(Oc3ccc(NC(=S)NC(=O)c4cccc(Br)c4)cc3F)c2cc1OC [Example 946, N-(3-Bromobenzoyl)-N′-{4-[(6,7-dimethoxy-4-quinolyl)oxy]-3-fluorophenyl}thiourea]
375 nM	COc1cc2nccc(Oc3ccc(NC(=S)NC(=O)c4cccc(C)c4)cc3Cl)c2cc1OC [Example 947, N-{3-Chloro-4-[(67-dimethoxy-4-quinolyl)oxy]phenyl}-N′-(3-methylbenzoyl)thiourea]

IC50	Structure (SMILES)
830 nM	COc1cc2nccc(Oc3ccc(NC(=S)NC(=O)c4cccc(F)c4)cc3Cl)c2cc1OC [Example 948, N-{3-Chloro-4-[(67-dimethoxy-4-quinolyl)oxy]phenyl}-N′-(3-fluorobenzoyl)thiourea]
250 nM	COc1cc2nccc(Oc3ccc(NC(=S)NC(=O)c4cccc(Cl)c4)cc3Cl)c2cc1OC [Example 949]
224 nM	COc1cccc(C(=O)NC(=S)Nc2ccc(Oc3ccnc4cc(OC)c(OC)cc34)c(Cl)c2)c1 [Example 950, N-{3-Chloro-4-[(6,7-dimethoxy-4-quinolyl)oxy]phenyl}-N′-(3-methoxybenzoyl)thiourea]
124 nM	COc1cc2nccc(Oc3ccc(NC(=S)NC(=O)c4cccc(C(F)(F)F)c4)cc3Cl)c2cc1OC [Example 951, N-{3-Chloro-4-[(6,7-dimethoxy-4-quinolyl)oxy]phenyl}-N′-[3-(trifluoromethyl)benzoyl]-thiourea]
317 nM	COc1cc2nccc(Oc3ccc(NC(=S)NC(=O)c4cccc(Br)c4)cc3Cl)c2cc1OC [Example 952, N-(3-Bromobenzoyl)-N′-{3-chloro-4-[(6,7-dimethoxy-4-quinolyl)oxy]phenyl}thiourea]
131 nM	COc1cc2ncnc(Oc3ccc(NC(=S)NC(=O)c4cccc(C)c4)cc3)c2cc1OC [Example 954, N-{4-[(6,7-Dimethoxy-4-quinazolinyl)-oxy]phenyl}-N′-(3-methylbenzoyl)thiourea]
251 nM	COc1cc2ncnc(Oc3ccc(NC(=S)NC(=O)c4cccc(Cl)c4)cc3)c2cc1OC [Example 955, N-(3-Chlorobenzoyl)-N′-{4-[(6,7-dimethoxy-4-quinazolinyl)oxy]phenyl}thiourea]
326 nM	COc1cccc(C(=O)NC(=S)Nc2ccc(Oc3ncnc4cc(OC)c(OC)cc34)cc2)c1 [Example 956, N-{4-[(6,7-Dimethoxy-4-quinazolinyl)oxy]phenyl}-N′-(3-methoxybenzoyl)thiourea]
136 nM	COc1cc2ncnc(Oc3ccc(NC(=S)NC(=O)c4cccc(C(F)(F)F)c4)cc3)c2cc1OC [Example 957, N-{4-[(6,7-Dimethoxy-4-quinazolinyl)oxy]phenyl}-N′-[3-(trifluoromethyl)benzoyl]thiourea]
194 nM	COc1cc2ncnc(Oc3ccc(NC(=S)NC(=O)c4cccc(Br)c4)cc3)c2cc1OC [Example 958, N-(3-Bromobenzoyl)-N′-{4-[(6,7-dimethoxy-4-quinazolinyl)oxy]phenyl}thiourea]
629 nM	COc1cc2nccc(Oc3ccc(NC(=S)NC(=O)c4ccc(Cl)cc4)cc3)c2cc1OC [Example 960, N-(4-Chlorobenzoyl)-N′-{4-[(6,7-dimethoxy-4-quinolyl)oxy]phenyl}thiourea]
740 nM	COc1cc2nccc(Oc3ccc(NC(=S)NC(=O)c4ccc(F)cc4)cc3)c2cc1OC [Example 961, N-{4-[(6,7-Dimethoxy-4-quinolyl)oxy]phenyl}-N′-(4-fluorobenzoyl)thiourea]
701 nM	COc1ccc(C(=O)NC(=S)Nc2ccc(Oc3ccnc4cc(OC)c(OC)cc34)cc2)cc1 [Example 963, N-{4-[(6,7-Dimethoxy-4-quinolyl)oxy]phenyl}-N′-(4-methoxybenzoyl)thiourea]
233 nM	COc1cc2nccc(Oc3ccc(NC(=S)NC(=O)c4ccc(F)cc4)c(F)c3)c2cc1OC [Example 966, N-{4-[(6,7-Dimethoxy-4-quinolyl)oxy]-2-fluorophenyl}-N′-(4-fluorobenzoyl)thiourea]
300 nM	COc1cc2nccc(Oc3ccc(NC(=S)NC(=O)c4ccc(C)cc4)cc3F)c2cc1OC [Example 970, N-{4-[(6,7-Dimethoxy-4-quinolyl)oxy]-3-fluorophenyl}-N′-(4-methylbenzoyl)thiourea]
523 nM	COc1cc2nccc(Oc3ccc(NC(=S)NC(=O)c4ccc(Cl)cc4)cc3F)c2cc1OC [Example 971, N-(4-Chlorobenzoyl)-N′-{4-[(6,7-dimethoxy-4-quinolyl)oxy]-3-fluorophenyl}thiourea]

Same assay, conditions: Mo7e, figure in parentheses in −( ); at 1000 nM

inhibition at 1 µM	Structure (SMILES)
32%	COc1cc2nccc(Oc3ccc(NC(=S)NC(=O)c4cccc(C)c4)c([N+](=O)[O-])c3)c2cc1OC [Example 953, N-{4-[(6,7-Dimethoxy-4-quinolyl)oxy]-2-nitrophenyl}-N′-(3-methylbenzoyl)thiourea]
35%	COc1cc2nccc(Oc3ccc(NC(=S)NC(=O)c4ccc([N+](=O)[O-])cc4)cc3)c2cc1OC [Example 962, N-{4-[(6,7-Dimethoxy-4-quinolyl)oxy]phenyl}-N′-(4-nitrobenzoyl)thiourea]
46%	COc1cc2nccc(Oc3ccc(NC(=S)NC(=O)c4ccc(C)cc4)c(F)c3)c2cc1OC [Example 964, N-{4-[(6,7-Dimethoxy-4-quinolyl)oxy]-2-fluorophenyl}-N′-(4-methylbenzoyl)thiourea]
24%	COc1cc2nccc(Oc3ccc(NC(=S)NC(=O)c4ccc(Cl)cc4)c(F)c3)c2cc1OC [Example 965, N-(4-Chlorobenzoyl)-N′-{4-[(6,7-dimethoxy-4-quinolyl)oxy]-2-fluorophenyl}thiourea]
27%	COc1cc2nccc(Oc3ccc(NC(=S)NC(=O)c4ccc([N+](=O)[O-])cc4)c(F)c3)c2cc1OC [Example 968, N-{4-[(6,7-Dimethoxy-4-quinolyl)oxy]-2-fluorophenyl}-N′-(4-nitrobenzoyl)thiourea]
19%	COc1ccc(C(=O)NC(=S)Nc2ccc(Oc3ccnc4cc(OC)c(OC)cc34)cc2F)cc1 [Example 969, N-{4-[(6,7-Dimethoxy-4-quinolyl)oxy]-2-fluorophenyl}-N′-(4-methoxybenzoyl)thiourea]
